Results taken from patent publication US20240208992A1, “MACROCYCLES AS CFTR MODULATORS” (Idorsia Pharmaceuticals Ltd, priority 2021, published 2024).

Biological target: human F508del-CFTR (Homo sapiens, UniProt P13569, DEL508-508)
Experiment: F508del-CFTR cell surface expression (corrector activity), DiscoveRx ß-galactosidase complementation chemiluminescence assay in recombinant U2OS cell line;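 note: U2OS cells co-expressing ProLink-tagged F508del-CFTR and a membrane-anchored enzyme acceptor, where more surface CFTR restores β-galactosidase activity measured by chemiluminescence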
Settings: for EC50: EC50, F508del-CFTR cell surface expression, geomean values; for Emax: U2OS, arithmetic mean values
[1] = U2OS cells, 16h compound incubation
[2] = in relation to Emax of corrector lumacaftor (=100%)
[3] = in relation to the Emax of the corrector lumacaftor (=100%), U2OS cell line, 16h compound incubation

human F508del-CFTR, sequence (P13569 with tags, fused parts or gaps DEL508-508): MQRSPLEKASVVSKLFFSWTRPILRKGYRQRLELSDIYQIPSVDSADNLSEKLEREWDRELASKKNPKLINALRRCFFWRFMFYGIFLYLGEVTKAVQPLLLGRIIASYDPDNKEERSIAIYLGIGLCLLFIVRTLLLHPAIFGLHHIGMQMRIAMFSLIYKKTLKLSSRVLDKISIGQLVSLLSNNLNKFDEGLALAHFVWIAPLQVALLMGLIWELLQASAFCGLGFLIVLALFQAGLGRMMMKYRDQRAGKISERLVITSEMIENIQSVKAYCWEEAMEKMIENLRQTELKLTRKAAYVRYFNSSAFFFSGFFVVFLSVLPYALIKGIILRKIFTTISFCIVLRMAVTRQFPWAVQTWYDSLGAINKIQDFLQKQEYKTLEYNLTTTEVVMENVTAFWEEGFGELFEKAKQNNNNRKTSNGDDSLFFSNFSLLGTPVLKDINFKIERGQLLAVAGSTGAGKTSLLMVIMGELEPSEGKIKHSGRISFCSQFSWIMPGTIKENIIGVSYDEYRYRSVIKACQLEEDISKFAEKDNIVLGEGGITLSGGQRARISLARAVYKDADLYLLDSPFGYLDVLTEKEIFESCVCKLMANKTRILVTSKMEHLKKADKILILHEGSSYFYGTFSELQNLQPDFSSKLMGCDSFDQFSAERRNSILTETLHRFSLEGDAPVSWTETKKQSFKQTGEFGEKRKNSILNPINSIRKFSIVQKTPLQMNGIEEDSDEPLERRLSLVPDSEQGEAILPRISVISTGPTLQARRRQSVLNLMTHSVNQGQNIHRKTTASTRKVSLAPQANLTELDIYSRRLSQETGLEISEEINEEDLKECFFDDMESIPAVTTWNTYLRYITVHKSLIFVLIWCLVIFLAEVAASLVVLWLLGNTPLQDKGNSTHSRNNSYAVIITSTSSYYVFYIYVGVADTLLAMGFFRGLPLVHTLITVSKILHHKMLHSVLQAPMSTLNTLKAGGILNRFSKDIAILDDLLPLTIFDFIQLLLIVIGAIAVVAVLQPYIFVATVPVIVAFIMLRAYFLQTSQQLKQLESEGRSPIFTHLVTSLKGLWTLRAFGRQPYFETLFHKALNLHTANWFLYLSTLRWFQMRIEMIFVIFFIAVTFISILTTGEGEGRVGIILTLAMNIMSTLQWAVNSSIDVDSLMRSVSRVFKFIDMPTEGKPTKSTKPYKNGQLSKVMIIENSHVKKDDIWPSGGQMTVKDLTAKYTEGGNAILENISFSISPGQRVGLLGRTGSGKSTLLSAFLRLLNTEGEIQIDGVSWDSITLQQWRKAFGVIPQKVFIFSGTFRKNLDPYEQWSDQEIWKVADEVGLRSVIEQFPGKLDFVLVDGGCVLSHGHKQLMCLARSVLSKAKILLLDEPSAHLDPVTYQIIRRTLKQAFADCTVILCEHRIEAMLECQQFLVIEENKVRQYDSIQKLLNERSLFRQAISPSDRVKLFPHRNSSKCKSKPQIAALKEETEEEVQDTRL

Row | SMILES | EC50 [1] [nM] | Emax [2] [%] | EC50 (U2OS cell line, 16h compound incubation) [nM] | Emax [3] [%]
1 | Cc1cc(CCNC(=O)[C@@H]2CC(=O)N(C)[C@@H](CC3CCCC3)C(=O)N3CCCC[C@H]3C(=O)N[C@H](Cc3ccccc3)COc3ccc4c(C)noc4c3C(=O)N2)on1 [Example 631, (8S,12S,18aS,21R)-21-benzyl-12-(cyclopentylmethyl)-3,11-dimethyl-N-(2-(3-methylisoxazol-5-yl)ethyl)-6,10,13,19-tetraoxo-6,7,8,9,10,11,12,13,16,17,18,18a,19,20,21,22-hexadecahydro-15H-isoxazolo[4′,5′:5,6]benzo[1,2-p]pyrido[2,1-f][1]oxa[4,7,10,14]tetraazacycloheptadecine-8-carboxamide] | 898 | 133 |  | 
2 | Cc1noc2c3c(ccc12)OC[C@@H](Cc1ccccc1)NC(=O)[C@@H]1CCCCN1C(=O)[C@H](CC(C)C)N(C)C(=O)C[C@@H](C(=O)NCCc1c(F)cccc1F)NC3=O [Example 635, (8S,12S,18aS,21R)-21-benzyl-N-(2,6-difluorophenethyl)-12-isobutyl-3,11-dimethyl-6,10,13,19-tetraoxo-6,7,8,9,10,11,12,13,16,17,18,18a,19,20,21,22-hexadecahydro-15H-isoxazolo[4′,5′:5,6]benzo[1,2-p]pyrido[2,1-f][1]oxa[4,7,10,14]tetraazacycloheptadecine-8-carboxamide] | 404 | 112 |  | 
3 | Cc1cc2ccc3c(c2o1)C(=O)N[C@H](C(=O)NCCc1cc(C2CC2)no1)CC(=O)N(C)[C@@H](CC(C)C)C(=O)N(C)CC(=O)N[C@H](Cc1ccccc1)CO3 [Example 532, (8R,14S,18S)-8-benzyl-N-(2-(3-cyclopropylisoxazol-5-yl)ethyl)-14-isobutyl-2,12,15-trimethyl-10,13,16,20-tetraoxo-7,8,9,10,11,12,13,14,15,16,17,18,19,20-tetradecahydrobenzofuro[7,6-p][1]oxa[4,7,10,14]tetraazacycloheptadecine-18-carboxamide] | 397 | 375 |  | 
4 | COc1cccc(CCNC(=O)[C@@H]2CC(=O)N(C)[C@@H](CC(C)C)C(=O)N3CCN(C4CC4)C[C@@H]3C(=O)N[C@H](Cc3ccccc3)COc3ccc4ccccc4c3C(=O)N2)c1 [Example 356, (4aR,7R,18S,22S)-7-benzyl-3-cyclopropyl-22-isobutyl-N-(3-methoxyphenethyl)-21-methyl-5,16,20,23-tetraoxo-2,3,4,4a,5,6,7,8,16,17,18,19,20,21,22,23-hexadecahydro-1H-naphtho[1,2-p]pyrazino[2,1-f][1]oxa[4,7,10,14]tetraazacycloheptadecine-18-carboxamide] |  |  | 167 | 353
5 | COc1cccc(CCNC(=O)[C@@H]2CC(=O)N(C)[C@@H](CC(C)C)C(=O)N3CCCC[C@@H]3C(=O)N[C@H](Cc3ccccc3)COc3ccc4c(cnn4C)c3C(=O)N2)c1 [Example 423, (8S,12S,18aR,21R)-21-benzyl-12-isobutyl-N-(3-methoxyphenethyl)-3,11-dimethyl-6,10,13,19-tetraoxo-6,7,8,9,10,11,12,13,16,17,18,18a,19,20,21,22-hexadecahydro-3H,15H-pyrido[2′,1′:6,7][1]oxa[4,7,10,14]tetraazacycloheptadecino[16,17-e]indazole-8-carboxamide] | 278 | 239 |  | 
6 | COc1cccc2c1C(=O)N[C@H](C(=O)NCCc1nc3ccccc3o1)CC(=O)N(C)[C@@H](CC(C)C)C(=O)N(CCC1CCCCC1)CC(=O)N[C@H](Cc1ccccc1)CO2 (racemic) [Example 16, (3R,9S,13RS)-N-(2-(benzo[d]oxazol-2-yl)ethyl)-3-benzyl-7-(2-cyclohexylethyl)-9-isobutyl-16-methoxy-10-methyl-5,8,11,15-tetraoxo-2,3,4,5,6,7,8,9,10,11,12,13,14,15-tetradecahydrobenzo[p][1]oxa[4,7,10,14]tetraazacycloheptadecine-13-carboxamide] |  |  |  | 137
